Data reported in patent US20090304668A1, “LARVAL POLYPEPTIDES HAVING A NUCLEASE ACTIVITY” (The Secretary of State for Defence, priority 2006, published 2009).

How the values were obtained:
[1] = test system: DNA methyl green; assay: DNA methyl green assay of ES and DNase activity in the presence of EDTA; format: biochemical; conditions: 5.07 μg/ml ES, 3.78 μg/ml DNase
Experimental: 125 μl of 81.15 μg/ml ES was added to both 1875 μl DNA methyl green (0.2 mg/ml) and DNA methyl green containing 5 mM EDTA. Final concentrations are therefore 5.07 μg/ml ES and 4.7 mM EDTA. DNase was diluted to 121.1 μg/ml, diluted 1 in 2 and added to 1875 μl of DNA methyl green and DNA methyl green containing EDTA. The activity of STI treated ES was also assayed in the same way, in the presence of or in the absence of EDTA. These samples were then incubated in a water bath at 37° C. 100 μl samples were taken every 2 minutes (in triplicate) and added to 150 μl of 0.083M sodium citrate in a 96 well plate. The plates were left to stand overnight and the absorbance then read at 630 nm in an Anthos Lucy1 microplate luminometer.

[2] = test system: DNA methyl green; assay: Dose dependency curves (DNA methyl green, 96 well plate); format: biochemical; conditions: for EC50: 37° C.
Experimental: In order to further characterise ES, dose dependency curves were created enabling the EC50 value to be determined. ES was diluted to a concentration of 13.40 μg/ml in PBS, following this 1 in 10 dilutions in PBS were then performed. DNase was diluted to a concentration of 10 μg/ml in PBS, this was then also subject to 1 in 10 dilutions. 20 μl of each dilution was added to 180 μl of 0.2 mg/ml DNA methyl green in a 96 well plate (done in triplicate). Absorbance readings were then taken after 3, 18, and 24 hours at 630 nm in an Anthos Lucy1 microplate luminometer. The dose dependency curves were created by plots of log10 concentration (mcg/ml) against mean absorbance (630 nm) in the statistical analysis program, GraphPad Prism™.

[3] = test system: bacterial genomic DNA; assay: Agarose gel electrophoresis of bacterial genomic DNA in presence of soybean trypsin inhibitor and EDTA; format: biochemical, E. coli; conditions: 20 minutes 37° C.
Experimental: Samples containing bacterial genomic DNA, and ES or DNase in the absence and presence of EDTA and a soybean trypsin inhibitor were loaded onto an agarose gel to observe the effects of these inhibitors on DNase activity. A soybean trypsin inhibitor (Sigma) was washed 4 times with PBS and each time centrifuged into a pellet and the PBS removed as the supernatant. On the 5th washing, 500 μl of PBS were used to suspend the trypsin inhibitor and this was equally distributed between the samples to be treated. Samples of ES 162.3 μg/ml and PBS (control) were treated with the soybean trypsin inhibitor in order to remove any serine proteinases present. These samples were treated with STI 3 times in order to achieve maximal removal of serine proteinases, again following each treatment the solution was centrifuged and the ES/PBS removed as the supernatant. Following washing, these solutions were transferred to a fresh Eppendorf.
15.34 μl of 1.385 mg/ml bacterial genomic DNA was diluted to 0.1 mg/ml in 184.6 μl of either sterile PBS or 5 mM EDTA. 121.1 μg/ml DNase was also made up (10 μl of 1 mg/ml diluted in 72.6 μl of PBS.) In order to make up the samples, 50 μl of the appropriate one of these DNA solutions plus 3.125 μl of STI treated/untreated DNase/ES/PBS. […]

DNase
DNase activity in the presence of EDTA ([1]; EDTA): activity almost abolished
DNase activity in the absence of EDTA ([1]; no EDTA): relatively similar activity
EC50 ([2]; absorbance reading at 3 hours): 0.1921 µg/mL
EC50 ([2]; absorbance reading at 18 hours): 0.0605 µg/mL
EC50 ([2]; absorbance reading at 24 hours): 0.0571 µg/mL
potency of DNase relative to ES ([2]; from EC50 values): 3 times
degradation of bacterial genomic DNA in presence of EDTA ([3]; 5 mM EDTA): no DNase activity
degradation of bacterial genomic DNA in absence of EDTA ([3]; untreated, no EDTA): no DNase activity
